Assay results reported in patent US8679461B2, “Use of hesperetin for enhancing the sweet taste” (Symrise AG, priority 2005, dated 2014).
Where “and” joins values, the source holds several entries; their conditions need not be identical. Equal values may be shown once.

What was measured:
[1] = tested on: sweet impression of a 5% by weight sucrose-containing solution; assay: Enhancing the sweet impression of a sugar solution, rating by a group of experts (Application Example 1); assay type: in vivo; conditions: for total number of tasters against the number of tasters who found the test solution sweeter / % Enhancement of the sweet impression: 5% sucrose + 100 ppm substance against 5% sucrose solution; for % Enhancement of the sweet impression: calculated from mean ratings; for Sweet impression (1-10) b) with: 5% sucrose + 100 ppm substance, rating 0 [not sweet] to 10 [extremely sweet], mean ± standard deviation
Method: In order to quantify the enhancement of a sweet impression owing to the addition of hesperetin, the respective sweetness of a 5% by weight sucrose-containing solution and of samples which contained 5% sucrose and 100 ppm hesperetin (source: Sigma-Aldrich, Order.-No. H 4125, CA-No. 41001-90-5) or a quantity of comparative hydroxyflavanones naringenin, eriodictyol, homoeriodictyol or eriodictyol-7-methylether (cf. US 2002 188,019) was determined by a group of experts (rating0 [not sweet] to 10 [extremely sweet]). Evaluation took place as a calculation of the enhancement (in %) of the sweet impression from the mean values of the assessments of the sucrose solution or the sucrose and compound 2-containing solution.

[2] = tested on: sweet impression of sucrose-containing solutions; assay: Sweet impression of a sugar-reduced test solution, rating by a group of experts (Application Example 2); assay type: in vivo
Method: In order to quantify the retention of a sweet impression when replacing a sucrose content with a small quantity of hesperetin, the respective sweetness of (a) a 6% by weight sucrose-containing solution against a 5% by weight sucrose-containing solution and (b) a 6% by weight sucrose-containing solution against a solution which contained 5% sucrose and a quantity of hesperetin (source: Sigma-Aldrich, Order No. H 4125, CA-No. 41001-90-5) was determined by a group of experts (rating 0 [not sweet] to 10 [extremely sweet]). Evaluation took place as a calculation of the enhancement (in %) of the sweet impression from the mean values of the assessments of the 6% or 5% sucrose-containing solution or 5% sucrose and 100 ppm hesperetin-containing solution.

sweet taste = conditions: concentration of 200 ppm; cited from earlier work

Row | SMILES | total number of tasters against the number of tasters who found the test solution sweeter [1] | % Enhancement of the sweet impression [1] | Sweet impression (1-10) b) with [1] | other results
1 | COc1cc(O)c2c(c1)OC(c1ccc(O)c(O)c1)CC2=O (stereo not drawn) [Eriodictyol-7-methylether] | 18/13 | +15.9% | 5.7 ± 1.9 | 
2 | O=C1C[C@@H](c2ccc(O)c(O)c2)Oc2cc(O)cc(O)c21 [Eriodictyol] | 12/2 | −16.7% | 5.4 ± 1.2 | 
3 | COc1ccc(C2CC(=O)c3c(O)cc(O)cc3O2)cc1O (stereo not drawn) [Hesperetin, 4′-methoxy-3′,5,7-trihydroxyflavanone] | 16/14 | +41% | 7.1 ± 2.4 | sweet-enhancing effect (in words) ([1]; in contrast to naringenin, homoeriodictyol, eriodictyol and eriodictyol-7-methylether, cf. Example 1): clear and significant sweet-enhancing effect; total number of tasters against the number of tasters who found the test solution sweeter ([2]; test (b): 5% sucrose + 100 ppm hesperetin against 6% sucrose): 15/12; % Enhancement of the sweet impression ([2]; test (b): 5% sucrose + 100 ppm hesperetin against 6% sucrose solution): +21%; Sweet impression (1-10) 5% sucrose + 100 ppm hesperetin ([2]; test (b), mean ± standard deviation): 7.9 ± 1.5; inherent taste (in words) (sweet taste): very weak sweet taste
4 | COc1cc([C@@H]2CC(=O)c3c(O)cc(O)cc3O2)ccc1O [Homoeriodictyol] | 19/13 | +6.4% | 6.1 ± 1.5 | 
5 | O=C1C[C@@H](c2ccc(O)cc2)Oc2cc(O)cc(O)c21 [Naringenin] | 19/12 | +7.5% | 6.0 ± 1.7 | 
6 | OC[C@H]1O[C@@](CO)(O[C@H]2O[C@H](CO)[C@@H](O)[C@H](O)[C@H]2O)[C@@H](O)[C@@H]1O [sucrose] |  |  |  | Sweet impression (1-10) 5% sucrose ([2]; 5% by weight sucrose solution, test (a), mean ± standard deviation): 5.0 ± 1.6; Sweet impression (1-10) 6% sucrose ([2]; 6% by weight sucrose solution, reference in tests (a) and (b), mean ± standard deviation): 6.5 ± 1.5 and 6.9 ± 1.6; total number of tasters against the number of tasters who found the test solution sweeter ([2]; test (a): 5% sucrose against 6% sucrose): 15/0; % Enhancement of the sweet impression ([2]; test (a): 5% sucrose solution against 6% sucrose solution): −30%
